# Measured values as given in patent US9775859B2, “Methods and compositions for preventing and treating a disease related to glycan dysregulation” (Sinai Health System, priority 2005, dated 2017).
# “And” between values parts separate entries of the source, which are not always exact repeats. Equal values may be shown once. “Also recorded” adds a separate entry of the source.
# Legend:
# [1] = test system: PL/J and C57/B6 T cell cultures; assay: L-PHA staining of mouse CD3+ T cells stimulated with anti-CD3, FACS; type: cell-based; conditions: listed as SW
# Method: Mice used for L-PHA staining and quantitative RT-PCR were sex and age matched. […] 129/Sv mice were from an original Mgat5 gene targeted population (28). All other mice (SJL, NOD, Balb/c and B10.S) were obtained from Jackson Laboratories. […] Mouse and Jurkat cells were stained with L-PHA and LEA by first blocking with PBA (2% bovine serum albumin/0.01% azide/PBS) for 10 min at 4° C. and then incubated with 4 μg/ml of L-PHA-FITC (Vector Laboratories Inc.) or 20 μg/ml of LEA-FITC (Sigma) in PBA for 40 min at 4° C. and analyzed by a BD FACSCalihur (BD Pharmingen, San Diego, Calif.). The level of lectin binding was normalized by untreated control and calculated as a percentage (Sample intensity/control intensity-1) %.
# Mice used for L-PHA staining and quantitative RT-PCR were sex and age matched. […] 129/Sv mice were from the original Mgat5 gene targeted population (28). All other mice (SJL, NOD, Balb/c and B10.S) were obtained from Jackson Laboratories. Mouse cells were stained with anti-CD4 (RM4-5), anti-CD8 (53-6.7), anti-CD45R (RA3-6B2) from eBioscience, and L-PHA (4 μg/ml) and LEA (20 μg/ml) from Sigma. […] The indicated monosaccharides and/or metabolites were added daily except glucose which was added only at time zero. […] The plateau or highest non-toxic dose is shown.
# [2] = test system: PL/J and C57/B6 T cell cultures; assay: CFSE proliferation of mouse CD3+ T cells stimulated with anti-CD3; type: cell-based; conditions: wild type PL/J and C57/B6 T cells
# CHO cells [3] = assay: L-PHA and ConA lectin staining of CHO cells by FACS; type: cell-based, Chinese Hamster; conditions: CHO cells treated with inhibitor
# From the text: (§1) For comparison of N-glycan profiles of mice and human MS patients, CHO cells and CHO cells deficient at 5 different steps in the N-glycan pathway (Glucosidase I, Mannosidase I, MGAT1, Mannosidase II and MGAT5, FIG. 7A) were used to define relative L-PHA and Concanavillin A (ConA) lectin staining levels by FACS along with MALDI TOF N-glycan processing profiles. […] Indeed, a human infant with severe human glucosidase I deficiency accumulates Glc3Man (885 A ion in FIG. 16A, 21C) in the urine, a 4 hexose oligomer which derives from the Glucosidase I substrate Glc3Man9GlcNAc2 via endo-mannosidase activity (70). […] Such activity would produce Man8GlcNAc2, Man7GlcNAc2 and Man6GlcNAc2 structures and allow processing by Mannosidase I/II. Indeed, N-glycans of these 3 compositions accumulate in Glucosidase I/II inhibited cells when Mannosidase I activity is blocked with DMN (69). The larger structures Glc3Man9GlcNAc2 (mass 3008) and Glc3Man7GlcNAc2 (mass 2600) were also observed (67), however they were at lower relative intensities compared to the A ion group (FIG. 21C). […] Mixing CHO and Lec1 cells in various proportions confirmed that relative differences in expression of N-glycan structures can be determined using MALDI TOF (FIG. 21G).
# CHO cells [4] = assay: MALDI-TOF mass spectroscopy N-glycan profile of CHO cells; type: cell-based, Chinese Hamster; conditions: CHO cells treated with inhibitor
# Method: This was done as a service at the Glycotechnology core facility, a resource of the Glycobiology Research and Training Center (GRTC) at the University of California, San Diego. CD3+ murine T cells (6×10^6), resting PBMCs from human controls and MS subjects (6×10^6) and CHO cells (10×10^6) were lysed with 1% SDS in 100 mM Tris pH 7.4, dialyzed to remove SDS, digested with trypsin to generate glycopeptides and treated with PNGaseF to release the N-glycans. To focus on early processing, N-glycans were desialylated by mild acid digestion prior to permethylation and MALDI-TOF mass spectroscopy. Monoisotopic peaks in the spectra were identified using GlycanMass and GlycoMod online software, with specific targeting of the N-glycan intermediates occurring during Golgi processing.
# as §1
# MGAT1 = molecular target: T1, MGAT1 (Homo sapiens, UniProt P26572); conditions: read-out: Km for UDP-GlcNAc; cited from earlier work
# T1 sequence (P26572 1-445): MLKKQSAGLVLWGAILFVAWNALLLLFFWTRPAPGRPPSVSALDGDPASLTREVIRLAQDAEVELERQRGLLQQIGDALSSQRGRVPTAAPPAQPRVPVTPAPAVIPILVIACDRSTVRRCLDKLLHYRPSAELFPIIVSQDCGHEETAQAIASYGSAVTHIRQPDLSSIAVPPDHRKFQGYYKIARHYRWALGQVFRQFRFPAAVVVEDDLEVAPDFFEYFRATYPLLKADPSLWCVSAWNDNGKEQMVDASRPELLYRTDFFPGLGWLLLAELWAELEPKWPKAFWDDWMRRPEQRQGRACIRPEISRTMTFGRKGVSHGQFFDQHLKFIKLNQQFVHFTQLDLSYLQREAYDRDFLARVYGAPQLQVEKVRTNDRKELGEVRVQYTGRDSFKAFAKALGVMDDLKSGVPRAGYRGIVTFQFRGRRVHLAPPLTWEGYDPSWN
# MGAT2 = molecular target: T2, MGAT2 (Homo sapiens, UniProt Q10469); conditions: read-out: Km for UDP-GlcNAc; cited from earlier work
# T2 sequence (Q10469 1-447): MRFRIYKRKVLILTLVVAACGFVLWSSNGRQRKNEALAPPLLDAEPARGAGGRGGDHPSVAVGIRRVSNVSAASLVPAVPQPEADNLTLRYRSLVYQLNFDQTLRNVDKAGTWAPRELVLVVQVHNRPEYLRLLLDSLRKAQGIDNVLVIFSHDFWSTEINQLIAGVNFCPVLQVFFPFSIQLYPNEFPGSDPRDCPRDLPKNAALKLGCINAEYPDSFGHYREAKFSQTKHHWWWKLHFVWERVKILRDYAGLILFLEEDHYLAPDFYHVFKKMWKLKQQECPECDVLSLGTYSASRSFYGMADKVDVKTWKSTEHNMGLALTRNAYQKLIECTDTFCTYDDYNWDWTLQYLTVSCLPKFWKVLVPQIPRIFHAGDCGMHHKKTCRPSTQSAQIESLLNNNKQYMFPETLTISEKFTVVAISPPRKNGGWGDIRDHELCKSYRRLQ
# MGAT4 = conditions: read-out: Km for UDP-GlcNAc; cited from earlier work
# MGAT5 enzyme = molecular target: T3, MGAT5 enzyme (Homo sapiens, UniProt Q09328); conditions: read-out: Km for UDP-GlcNAc; cited from earlier work
# T3 sequence (Q09328 1-741): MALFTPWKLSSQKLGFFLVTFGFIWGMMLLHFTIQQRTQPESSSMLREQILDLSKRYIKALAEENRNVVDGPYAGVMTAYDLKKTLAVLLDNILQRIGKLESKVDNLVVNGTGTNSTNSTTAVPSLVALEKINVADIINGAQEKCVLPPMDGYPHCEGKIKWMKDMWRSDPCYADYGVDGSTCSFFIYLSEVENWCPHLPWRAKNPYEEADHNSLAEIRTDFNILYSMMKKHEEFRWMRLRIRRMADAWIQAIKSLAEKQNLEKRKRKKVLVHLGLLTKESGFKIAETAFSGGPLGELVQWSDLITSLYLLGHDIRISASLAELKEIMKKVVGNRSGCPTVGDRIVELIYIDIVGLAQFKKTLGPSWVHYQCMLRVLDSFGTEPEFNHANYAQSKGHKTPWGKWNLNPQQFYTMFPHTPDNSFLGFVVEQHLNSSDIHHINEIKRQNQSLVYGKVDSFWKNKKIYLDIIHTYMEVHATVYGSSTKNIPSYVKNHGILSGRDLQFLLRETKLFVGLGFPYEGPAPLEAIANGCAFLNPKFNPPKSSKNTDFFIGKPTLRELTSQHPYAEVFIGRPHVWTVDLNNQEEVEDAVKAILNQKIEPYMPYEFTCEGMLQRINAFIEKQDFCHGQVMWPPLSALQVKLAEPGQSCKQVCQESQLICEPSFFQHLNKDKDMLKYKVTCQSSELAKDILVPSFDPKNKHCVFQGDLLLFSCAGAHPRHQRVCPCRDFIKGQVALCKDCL
# [5] = test system: UDP-GlcNAc/UMP transporter; conditions: UDP-GlcNAc/UMP transport, model parameter; cited from earlier work
SMILES,"up-regulation of β1,6 GlcNAc branched N-glycans following stimulation ([1]; anti-CD3, minimal concentrations)","resting levels of β1,6 GlcNAc branched N-glycans ([1]; minimal concentrations)",reversal of supplement effect on proliferation by blocking Mgat5 N-glycan expression [2],high-mannose structures as seen by ConA staining (CHO cells [3]),"β1,6GlcNAc-branched N-glycan expression by L-PHA staining (CHO cells [3])",MALDI TOF profile of N-glycans (accumulated structures) (CHO cells [4]),"β1,6GlcNAc-branched tetra-antennary N-glycans (mass 2969, structure G) (CHO cells [4])",Km (MGAT1) [µM],Km (MGAT2) [µM],Km (MGAT4) [mM],Km (MGAT5 enzyme),Km [5] [µM]
O[C@H]1[C@H]2[C@H](O)CCCN2C[C@H]1O [swainsonine],significantly attenuated,without affecting; also recorded: do not affect,reversed,increased,dramatic reductions,accumulation of hybrid structures,absent,,,,,
"CC(=O)N[C@H]1[C@@H](OP(=O)(O)OP(=O)(O)OC[C@H]2O[C@@H](n3ccc(=O)[nH]c3=O)[C@H](O)[C@@H]2O)O[C@H](CO)[C@@H](O)[C@@H]1O [UDP-GlcNAc, UDP-N-acetylglucosamine]",,,,,,,,40,900,~5,~10 mM and ~11 mM and 11 mM,7.13
